Assay results from US20240117431A1, “STEM-CELL BASED BIOMARKER DISCOVERY” (THE REGENTS OF THE UNIVERSITY OF CALIFORNIA, priority 2020, published 2024).
Entries after “also recorded” stand apart in the source; their conditions may differ.

Key:
[1] = tested on: (−)TgUPRT HEK cells; experiment: Background incorporation of uracil analogs into RNA, streptavidin-HRP dot blot; format: cell-based; settings: 1 mM, mimics in vivo applications, FIG. 4
Protocol: (§1) Transfection, labeling of cellular RNA and RNA isolation: After 48h seeding, HEK293 cells were transfected with 2.5 μg of TgUPRT WT or mutant plasmids (pKN-CMV-TgUPRT-WT or -Mutt to Mut17) per 5 cm plate using JetPrime Transfection reagent (Polyplus Transfection, France). At 40h post-transfection, cells were incubated with a final concentration of 200 μM at <1% DMSO from 400 mM stock of uracil analogs (5EU, 5VU, 5AU) or 200 mM SAMU stock for 5 h. For time course study, HEK cells were treated with 200 μM uracil analogs for 0 h, 0.5, 1, 3, 5, 12 and 24 hours. For titrating uracil analog concentration experiments, HEK cells were treated with 0 (DMSO), 50, 100, 200, 500 μM or 1 mM uracil analog for 5h. Treated HEK cells were subjected to total RNA extraction using 1 mL Trizol Reagent (Invitrogen) following the manufacturer instructions.
(§2) Biotinylation via CuAAC and IEDDA: Cu-mediated Azide-Alkyne cycloaddition (CuAAC) click reactions were performed in 50 μL reaction at 22° C. on a shaker for 30 min with click reaction cocktail containing 15 μg of total RNA, 1 mM biotin alkyne or biotin azide, fresh 4.6 mM THPTA to a final concentration of 1 mM, and fresh 10.6 mM sodium ascorbate (NaAsc) at final concentration of 1.77 mM, and 12 mM CuSO4 at final concentration of 200 μM in biotinylation reaction buffer (10 mM TrisHCI, 1 mM EDTA, pH7.4). The biotinylated RNA was purified using RNA clean & Concentrator-5 kit (Zymo Research, Cat #R1013) according to the manufacturer instructions and eluted in 21 μL of nuclease free water.
(§3) Inverse electron demand [4+2] Diels-Alder cycloaddition (IEDDA) click reactions were performed in 50 μL at 37° C. or 22° C. (RT) for 3h on mixer at 500 rpm containing 10-15 μg of total RNA, 1 mM final concentration of biotin-benzyl tetrazine (Sigma Aldrich, Cat #793329-5MG) in nuclease free water. Clicked total RNA was purified using RNA clean & Concentrator-5 kit (Zymo Research, Cat #R1013) according to the manufacturer instructions, and RNA was eluted in 21 μL of nuclease free water.
HRP-streptavidin dot blot analysis: All gel reagents were from Bio-Rad. For dot blot analysis, 2 μg of clicked total RNA was applied onto Hybond-N+ membrane (GE Healthcare) as individual dots and UV-crosslinked (254 nm) to a membrane (Stratalinker UV crosslinker). Membranes were blocked in blocking buffer (0.12 M NaCl, 0.016 M Na2HPO4, 0.008 M NaH2PO4, 0.17 M SDS) and followed by incubation with high sensitivity streptavidin-HRP (Fisher Scientific, Cat #: P121130) at 1:5000 dilution in blocking buffer for 5 minutes. The membrane was washed twice in a Wash A buffer (1:10 dilution of blocking buffer) and twice in Wash B buffer (Tris-saline buffer). […]

[2] = tested on: UPRT(+)-microglia brains; experiment: In vivo labeling of brain RNA in mice transplanted with UPRT-expressing human microglia, biotin dot blot; settings: IP close to 150 mg/kg, 24-48 hours, FIG. 14
Protocol: 5-vinyl-uracil (Alfa Aesar #4437903) was prepared in sterile conditions at 4 times the concentration in 100% DMSO, then diluted to 25% DMSO by adding corn oil to a final concentration of 500 mM. The mixture was heated to 37° C. for […] until homogenous. Mice are weighed before intraperitoneal injection (IP) injection to ensure close to 150 mg/kg are injected per treatment. For an (˜20 g) adult mouse typically 60-70 μl are IP injected per treatment. Mice are monitored for signs of distress. After 24-48 hours of treatment, mice were sacrificed and brains were immediately placed into 2 ml of RNAlater and left in 4° C. for 3-5 days. After removing brains from RNAlater, they were homogenized with RNAse-free 1.4 mm steel beads (Next Advance SSB14B-RNA) for 60 seconds and centrifuged at 4° C. for 5 min, maximum speed to separate the fatty layer. The bottom layer is collected, homogenized with 200 ul chloroform and centrifuged for 20 minutes, at 4° C. The aqueous layer is collected and 500 ul isopropanol added. After centrifugation for 30 minutes 4° C., the RNA pellet is washed in 70% Ethanol twice. After removing ethanol, the RNA pellet is resuspended in nuclease-free water and nanodrop to determine the concentration. From each sample, 15 μg of RNA was subjected in tetrazine-biotin ligation at 37° C., 500 RPM for 3 hours. The biotinylated RNA was purified with RNA Zymo Clean and Concentrator #5 and eluted with nuclease-free water. 2 μg of purified RNA was spotted onto a N+ Hybond membrane and UV-crosslinked at 254 nm (120,000 uJ). Membrane is blocked in blocking buffer (0.12 M NaCl, 0.016 M Na2HPO4, 0.008 M NaH2PO4, 0.17 M SDS) and followed by incubation with high sensitivity streptavidin-HRP (Fisher Scientific, Cat #: P121130) at 1:5000 dilution in blocking buffer for 5 minutes. The membrane was washed twice in a Wash A buffer (1:10 dilution of blocking buffer) and twice in Wash B buffer (Tris-saline buffer). It was then incubated for 1-5 min. in ECL Chemiluminescent Substrate (Fisher Scientific, Cat #: P132106) and imaged on a ChemiDoc MP imaging system (Bio-Rad). […]

[3] = target: T1, uracil monophosphate synthetase (UMPS) overexpressed in HEK cells (Homo sapiens, UniProt P11172); experiment: RNA incorporation with overexpression of UMPS, dot blot; format: cell-based; settings: 1 mM, 24 hours, FIG. 12
T1 construct: expressed in transfected cells; host or cells: HEK cells
T1 sequence (P11172 1-480): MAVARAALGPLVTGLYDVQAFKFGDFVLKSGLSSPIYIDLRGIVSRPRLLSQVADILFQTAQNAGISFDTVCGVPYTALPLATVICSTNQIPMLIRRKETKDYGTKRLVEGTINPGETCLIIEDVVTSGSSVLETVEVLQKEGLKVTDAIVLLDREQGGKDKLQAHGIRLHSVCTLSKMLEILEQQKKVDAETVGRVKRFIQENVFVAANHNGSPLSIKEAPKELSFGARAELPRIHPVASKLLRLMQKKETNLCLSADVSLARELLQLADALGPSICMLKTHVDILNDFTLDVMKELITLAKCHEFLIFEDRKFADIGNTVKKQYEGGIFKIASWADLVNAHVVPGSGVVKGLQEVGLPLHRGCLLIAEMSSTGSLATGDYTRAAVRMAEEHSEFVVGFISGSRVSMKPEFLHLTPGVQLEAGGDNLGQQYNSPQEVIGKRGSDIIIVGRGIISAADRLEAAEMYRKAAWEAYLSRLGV
Protocol: Analogs were incubated for 24 hours at 1 mM concentration in HEK cells. RNA was extracted and biotinylated using MTSEA-Biotin, followed by dot-blot analysis. Strep-HRP=Streptavidin conjugated Horseradish peroxidase. MeBI=methylene blue staining serving as loading control.

[4] = target: T2, wild-type (WT) TgUPRT in HEK cells (Toxoplasma gondii, UniProt Q26998); experiment: In-cell RNA incorporation by wild-type TgUPRT, streptavidin dot blot; format: cell-based; settings: wild-type TgUPRT active site
T2 construct: 6xHis; expressed in transfected cells; host or cells: HEK293 (HEK293T)
T2 sequence (Q26998 whole entry): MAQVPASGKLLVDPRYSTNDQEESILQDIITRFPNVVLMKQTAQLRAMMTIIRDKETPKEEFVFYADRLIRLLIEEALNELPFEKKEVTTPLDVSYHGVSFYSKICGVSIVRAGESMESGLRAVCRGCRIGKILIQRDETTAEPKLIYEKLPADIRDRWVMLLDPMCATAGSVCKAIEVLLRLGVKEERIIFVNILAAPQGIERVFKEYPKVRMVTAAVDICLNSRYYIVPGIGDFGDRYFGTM
Protocol: as §1, §2, §3
HRP-streptavidin dot blot analysis: All gel reagents were from Bio-Rad. […]

[5] = tested on: mutants TgUPRT; experiment: Phosphoribosyltransferase activity with recombinant TgUPRT mutants; format: biochemical, Toxoplasma gondii; settings: five recombinant TgUPRT mutants, FIG. 9A
Protocol: Enzyme activity assay: The standard activity assay was performed by incubating 10 μL of free extract or 0.5 μg of pure His-tag enzyme with 1 mM Phosphoribosyl pyrophosphate (PRPP), 1 mM uracil, 5 mM MgCl2 in 50 mM PBS buffer pH 7.4 in a final volume of 80 μL. The reaction mixture was incubated at 37° C. for 2-5 min (300 rpm). Enzyme was inactivated by adding 80 μL of cold methanol in ice-bath and heating for 5 min at 100° C. After centrifugation at 9000×g for 5 min, samples were half-diluted with water and the NMP production was analysed by HPLC to quantitatively measure the reaction products as described below in the analytical methods. All determinations were carried out in triplicate assuming Michaelis-Menten conditions, and the maximum error was below 5%. In such conditions, one international activity unit (IU) was defined as the amount of enzyme producing 1 μmol/min of UMP under the assay conditions.
Substrate specificity studies Enzymatic synthesis of the different pyrimidine nucleoside monophosphate (NMP) derivatives was carried out by incubating 0.5 μg of pure His-tag enzyme with 1 mM PRPP, 1 mM pyrimidine base and 5 mM MgCl2 in 50 mM PBS buffer pH 7.4 (1.6-3.2% v/v DSMO). The experiments were performed according to the standard assay. Subsequently, the reaction mixture was processed as described above and the NMP production was analyzed by HPLC.
Analytical methods: The production of NMPs was quantitatively measured with an ACE EXCEL 5 μm CN-ES 250×4.6 mm equilibrated with 100% trimethyl ammonium acetate at a flow rate of 0.8 mL/min. Retention times for the reference bases and NMPs (hereafter abbreviated according to the recommendations of the IUPAC-IUB Commission on Biochemical Nomenclature) were as follows: uracil (Ura), 4.7 min; 5-azido uracil (5-AUra). […]
Following these exciting observations, a more quantitative approach to examined for differences between enzyme mutants and their enzyme kinetics with the analogs. […] Each purified enzyme was incubated with the different substrates and phosphoribosyltransferase activity was measured (FIG. 9A).

With [N-]=[N+]=Nc1c[nH]c(=O)[nH]c1=O [compound 4, 5-Azidopyrimidine-2,4(1H,3H)-dione] as the compound, how does the “incorporation into RNA at higher concentration” value [1] read?
Its value is “higher incorporation”.

How did the “incorporation into brain RNA, UPRT(+)-microglia transplanted” value [2] turn out when C=Cc1cn([C@@H]2O[C@H](CO)[C@@H](O)[C@H]2O)c(=O)[nH]c1=O [5-vinyluridine, reference compound] was run?
Its value is “incorporated into brain RNA; also recorded: incorporation”.

Which “incorporation into cellular RNA with UMPS overexpression” value [3] does the source give for O=c1[nH]ccc(=S)[nH]1 [4-thiouracil, reference compound] here?
Its value is “higher amount”.

What about the “TgUPRT-dependent incorporation into cellular RNA” value [4] of the same compound?
The value was “has the ability to be incorporated into cellular RNA”.

With O=c1[nH]c(=S)ccn1[C@@H]1O[C@H](CO)[C@@H](O)[C@H]1O [4-thiouridine, reference compound] as the compound, how does the “incorporation into cellular RNA with UMPS overexpression” value [3] read?
The value was “incorporation”.

With O=c1cc[nH]c(=O)[nH]1 [Uracil, uracil, reference compound] as the compound, how does the “reactivity with the mutants (phosphoribosyltransferase activity)” value [5] read?
Its value is “reactivity of uracil for all five mutants was observed”.
